From PubChem BioAssay (NCI)
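Following 48 hours of exposure in 96-well plates, responses at five concentrations were used to interpolate endpoints linearly. TGI: total growth inhibition.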

Tests used:
Assay in all cases: growth of human tumour cells (NCI), 48 h
LOX IMVI melanoma = test system: LOX IMVI melanoma
SK-OV-3 ovarian = test system: SK-OV-3 ovarian
OVCAR-4 ovarian = test system: OVCAR-4 ovarian
M14 melanoma = test system: M14 melanoma
NCI-H522 lung = test system: NCI-H522 lung
OVCAR-3 ovarian = test system: OVCAR-3 ovarian
NCI-H460 lung = test system: NCI-H460 lung
RXF 393 renal = test system: RXF 393 renal
DU-145 prostate = test system: DU-145 prostate
BT-549 breast = test system: BT-549 breast
786-0 renal = test system: 786-0 renal
OVCAR-8 ovarian = test system: OVCAR-8 ovarian
MALME-3M melanoma = test system: MALME-3M melanoma
UACC-62 melanoma = test system: UACC-62 melanoma
EKVX NSCLC = test system: EKVX NSCLC
CCRF-CEM leukemia = test system: CCRF-CEM leukemia
COLO 205 colon = test system: COLO 205 colon
IGROV1 ovarian = test system: IGROV1 ovarian
TK-10 renal = test system: TK-10 renal
A498 renal = test system: A498 renal
T-47D breast = test system: T-47D breast
NCI/ADR-RES ovarian = test system: NCI/ADR-RES ovarian
SN12C renal = test system: SN12C renal
SF-295 CNS = test system: SF-295 CNS
CAKI-1 renal = test system: CAKI-1 renal
SK-MEL-28 melanoma = test system: SK-MEL-28 melanoma
MDA-MB-435 = test system: MDA-MB-435
NCI-H23 lung = test system: NCI-H23 lung
SW-620 colon = test system: SW-620 colon
MCF7 breast = test system: MCF7 breast
MOLT-4 leukemia = test system: MOLT-4 leukemia
MDA-N = test system: MDA-N
UO-31 renal = test system: UO-31 renal
SK-MEL-5 melanoma = test system: SK-MEL-5 melanoma
SNB-19 CNS = test system: SNB-19 CNS
OVCAR-5 ovarian = test system: OVCAR-5 ovarian
HCC-2998 colon = test system: HCC-2998 colon
SNB-75 CNS = test system: SNB-75 CNS
HS 578T breast = test system: HS 578T breast
ACHN renal = test system: ACHN renal
HOP-62 NSCLC = test system: HOP-62 NSCLC
KM12 colon = test system: KM12 colon
U251 CNS = test system: U251 CNS
HOP-92 NSCLC = test system: HOP-92 NSCLC
HL-60(TB) leukemia = test system: HL-60(TB) leukemia
MDA-MB-231 breast = test system: MDA-MB-231 breast
SF-268 CNS = test system: SF-268 CNS
HCT-15 colon = test system: HCT-15 colon
K-562 leukemia = test system: K-562 leukemia
HCT-116 colon = test system: HCT-116 colon
UACC-257 melanoma = test system: UACC-257 melanoma
NCI-H226 lung = test system: NCI-H226 lung
A549 NSCLC = test system: A549 NSCLC
SF-539 CNS = test system: SF-539 CNS
HT29 colon = test system: HT29 colon
RPMI-8226 leukemia = test system: RPMI-8226 leukemia
PC-3 prostate = test system: PC-3 prostate
SR leukemia = test system: SR leukemia
SK-MEL-2 melanoma = test system: SK-MEL-2 melanoma

Compound `O=c1[nH]c(=O)n([C@@H]2O[C@H](CO)[C@@H](O)[C@@H]2F)cc1I` has a TGI (LOX IMVI melanoma) of over 100 µM, a TGI (SK-OV-3 ovarian) of over 100 µM and a TGI (OVCAR-4 ovarian) of over 100 µM. It also gave a TGI (M14 melanoma) of over 100 µM, a TGI (NCI-H522 lung) of over 100 µM and a TGI (OVCAR-3 ovarian) of over 100 µM. For the same compound, the TGI (NCI-H460 lung) was over 100 µM, the TGI (RXF 393 renal) was over 100 µM and the TGI (DU-145 prostate) was over 100 µM. It also gave a TGI (BT-549 breast) of over 100 µM, a TGI (786-0 renal) of over 100 µM and a TGI (OVCAR-8 ovarian) of over 100 µM. For the same compound, the TGI (MALME-3M melanoma) was over 100 µM, the TGI (UACC-62 melanoma) was over 100 µM and the TGI (EKVX NSCLC) was over 100 µM. The TGI (CCRF-CEM leukemia) was 66.8 µM, the TGI (COLO 205 colon) was over 100 µM and the TGI (IGROV1 ovarian) was over 100 µM. For the same compound, the TGI (TK-10 renal) was over 100 µM, the TGI (A498 renal) was over 100 µM and the TGI (T-47D breast) was over 100 µM. It also gave a TGI (NCI/ADR-RES ovarian) of over 100 µM, a TGI (SN12C renal) of over 100 µM and a TGI (SF-295 CNS) of over 100 µM. It also gave a TGI (CAKI-1 renal) of over 100 µM, a TGI (SK-MEL-28 melanoma) of over 100 µM and a TGI (MDA-MB-435) of over 100 µM. The TGI (NCI-H23 lung) was over 100 µM, the TGI (SW-620 colon) was over 100 µM and the TGI (MCF7 breast) was over 100 µM. For the same compound, the TGI (MOLT-4 leukemia) was over 100 µM, the TGI (MDA-N) was over 100 µM and the TGI (UO-31 renal) was over 100 µM. The TGI (SK-MEL-5 melanoma) was over 100 µM, the TGI (SNB-19 CNS) was over 100 µM and the TGI (OVCAR-5 ovarian) was over 100 µM. For the same compound, the TGI (HCC-2998 colon) was over 100 µM, the TGI (SNB-75 CNS) was over 100 µM and the TGI (HS 578T breast) was over 100 µM. For the same compound, the TGI (ACHN renal) was over 100 µM, the TGI (HOP-62 NSCLC) was over 100 µM and the TGI (KM12 colon) was over 100 µM. For the same compound, the TGI (U251 CNS) was over 100 µM, the TGI (HOP-92 NSCLC) was over 100 µM and the TGI (HL-60(TB) leukemia) was over 100 µM. The TGI (MDA-MB-231 breast) was over 100 µM, the TGI (SF-268 CNS) was over 100 µM and the TGI (HCT-15 colon) was over 100 µM. The TGI (K-562 leukemia) was over 100 µM, the TGI (HCT-116 colon) was over 100 µM and the TGI (UACC-257 melanoma) was over 100 µM. It also gave a TGI (NCI-H226 lung) of over 100 µM, a TGI (A549 NSCLC) of over 100 µM and a TGI (SF-539 CNS) of over 100 µM. The TGI (HT29 colon) was over 100 µM.

`CNC(=S)/C(C#N)=C(\N)N1CCCC1` was tested, and the TGI (RPMI-8226 leukemia) was over 100 µM, the TGI (SK-OV-3 ovarian) was over 100 µM and the TGI (NCI-H522 lung) was over 100 µM. The TGI (OVCAR-3 ovarian) was over 100 µM, the TGI (NCI-H460 lung) was over 100 µM and the TGI (RXF 393 renal) was over 100 µM. For the same compound, the TGI (DU-145 prostate) was over 100 µM, the TGI (786-0 renal) was over 100 µM and the TGI (OVCAR-8 ovarian) was over 100 µM. For the same compound, the TGI (MALME-3M melanoma) was over 100 µM, the TGI (UACC-62 melanoma) was over 100 µM and the TGI (EKVX NSCLC) was over 100 µM. It also gave a TGI (PC-3 prostate) of over 100 µM, a TGI (CCRF-CEM leukemia) of over 100 µM and a TGI (COLO 205 colon) of over 100 µM. It also gave a TGI (IGROV1 ovarian) of over 100 µM, a TGI (TK-10 renal) of over 100 µM and a TGI (A498 renal) of over 100 µM. For the same compound, the TGI (T-47D breast) was over 100 µM, the TGI (SR leukemia) was over 100 µM and the TGI (NCI/ADR-RES ovarian) was over 100 µM. The TGI (SN12C renal) was over 100 µM, the TGI (CAKI-1 renal) was over 100 µM and the TGI (SK-MEL-28 melanoma) was over 100 µM. It also gave a TGI (MDA-MB-435) of over 100 µM, a TGI (NCI-H23 lung) of over 100 µM and a TGI (SW-620 colon) of over 100 µM. It also gave a TGI (MOLT-4 leukemia) of over 100 µM, a TGI (MDA-N) of over 100 µM and a TGI (SK-MEL-2 melanoma) of over 100 µM. For the same compound, the TGI (UO-31 renal) was over 100 µM, the TGI (SK-MEL-5 melanoma) was over 100 µM and the TGI (SNB-19 CNS) was over 100 µM. The TGI (OVCAR-5 ovarian) was over 100 µM, the TGI (HCC-2998 colon) was over 100 µM and the TGI (HS 578T breast) was over 100 µM. For the same compound, the TGI (ACHN renal) was over 100 µM, the TGI (HOP-62 NSCLC) was over 100 µM and the TGI (KM12 colon) was over 100 µM. The TGI (U251 CNS) was over 100 µM, the TGI (HL-60(TB) leukemia) was over 100 µM and the TGI (MDA-MB-231 breast) was over 100 µM. For the same compound, the TGI (SF-268 CNS) was over 100 µM, the TGI (HCT-15 colon) was over 100 µM and the TGI (K-562 leukemia) was over 100 µM. The TGI (HCT-116 colon) was over 100 µM, the TGI (NCI-H226 lung) was over 100 µM and the TGI (A549 NSCLC) was over 100 µM. It also gave a TGI (SF-539 CNS) of over 100 µM and a TGI (HT29 colon) of over 100 µM.
